# Measured values reported in PubChem BioAssay (NCI).
#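 In this assay, cells in 96-well plates receive the compound at five concentrations for 48 hours. Endpoints are linearly interpolated between the surrounding concentrations. TGI is the concentration that stops growth completely.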
# What was measured:
# Assay in all cases: NCI tumour cell line growth inhibition, 48 h
# [1] = system: SN12C renal
# [2] = system: M14 melanoma
# [3] = system: HS 578T breast
# [4] = system: IGROV1 ovarian
# [5] = system: SNB-75 CNS
# [6] = system: T-47D breast
# [7] = system: CAKI-1 renal
# [8] = system: SW-620 colon
# [9] = system: MALME-3M melanoma
# [10] = system: SF-539 CNS
# [11] = system: SNB-19 CNS
# [12] = system: OVCAR-3 ovarian
# [13] = system: SF-295 CNS
# [14] = system: MDA-MB-435
# [15] = system: HL-60(TB) leukemia
# [16] = system: MCF7 breast
# [17] = system: COLO 205 colon
# [18] = system: NCI/ADR-RES ovarian
# [19] = system: LOX IMVI melanoma
# [20] = system: RPMI-8226 leukemia
# [21] = system: HOP-62 NSCLC
# [22] = system: TK-10 renal
# [23] = system: NCI-H23 lung
# [24] = system: DU-145 prostate
# [25] = system: A498 renal
# [26] = system: CCRF-CEM leukemia
# [27] = system: UACC-62 melanoma
# [28] = system: NCI-H460 lung
# [29] = system: K-562 leukemia
# [30] = system: PC-3 prostate
# [31] = system: U251 CNS
# [32] = system: SR leukemia
# [33] = system: SK-MEL-28 melanoma
# [34] = system: HCC-2998 colon
# [35] = system: ACHN renal
# [36] = system: MDA-N
# [37] = system: OVCAR-5 ovarian
# [38] = system: SK-MEL-2 melanoma
# [39] = system: HCT-116 colon
# [40] = system: UO-31 renal
# [41] = system: OVCAR-8 ovarian
# [42] = system: UACC-257 melanoma
# [43] = system: MDA-MB-231 breast
# [44] = system: NCI-H226 lung
# [45] = system: HCT-15 colon
# [46] = system: EKVX NSCLC
# [47] = system: SK-OV-3 ovarian
# [48] = system: A549 NSCLC
# [49] = system: SF-268 CNS
# [50] = system: MOLT-4 leukemia
# [51] = system: BT-549 breast
# [52] = system: SK-MEL-5 melanoma
# [53] = system: RXF 393 renal
# [54] = system: KM12 colon
# [55] = system: NCI-H522 lung
# [56] = system: OVCAR-4 ovarian
# [57] = system: 786-0 renal
# [58] = system: HOP-92 NSCLC
# [59] = system: HT29 colon
compound,measurement,setting,value
COc1ccc2c(c1)c1nn(CCN(C)C)c3ccc4c(=O)n(CCN(C)C)c(=O)n2c4c13,TGI,[1],517 nM
same,TGI,[2],324 nM
same,TGI,[3],244 nM
same,TGI,[4],1650 nM
same,TGI,[5],77.8 nM
same,TGI,[6],> 25800 nM
same,TGI,[7],601 nM
same,TGI,[8],355 nM
same,TGI,[9],555 nM
same,TGI,[10],1770 nM
same,TGI,[11],635 nM
same,TGI,[12],255 nM
same,TGI,[13],224 nM
same,TGI,[14],166 nM
same,TGI,[15],340 nM
same,TGI,[16],198 nM
same,TGI,[17],182 nM
same,TGI,[18],277 nM
same,TGI,[19],469 nM
same,TGI,[20],< 19.2 nM
same,TGI,[21],217 nM
same,TGI,[22],696 nM
same,TGI,[23],231 nM
same,TGI,[24],603 nM
same,TGI,[25],526 nM
same,TGI,[26],107 nM
same,TGI,[27],474 nM
same,TGI,[28],14.2 nM
same,TGI,[29],448 nM
same,TGI,[30],262 nM
same,TGI,[31],1690 nM
same,TGI,[32],52.2 nM
same,TGI,[33],854 nM
same,TGI,[34],54.6 nM
same,TGI,[35],432 nM
same,TGI,[36],186 nM
same,TGI,[37],440 nM
same,TGI,[38],192 nM
same,TGI,[39],294 nM
same,TGI,[40],329 nM
same,TGI,[41],175 nM
same,TGI,[42],717 nM
same,TGI,[43],260 nM
same,TGI,[44],1100 nM
same,TGI,[45],173 nM
same,TGI,[46],405 nM
same,TGI,[47],304 nM
same,TGI,[48],75.9 nM
same,TGI,[49],211 nM
same,TGI,[50],197 nM
same,TGI,[51],2600 nM
same,TGI,[52],784 nM
same,TGI,[53],380 nM
same,TGI,[54],481 nM
same,TGI,[55],74.7 nM
same,TGI,[56],64.5 nM
same,TGI,[57],136 nM
COc1ccccc1/C=C1\Sc2scc(-c3cccc([N+](=O)[O-])c3)[n+]2C1=O,TGI,[1],11500 nM
same,TGI,[2],18600 nM
same,TGI,[58],16600 nM
same,TGI,[3],> 62600 nM
same,TGI,[4],26100 nM
same,TGI,[5],34400 nM
same,TGI,[6],33100 nM
same,TGI,[7],6240 nM
same,TGI,[8],> 36400 nM
same,TGI,[9],15700 nM
same,TGI,[10],3560 nM
same,TGI,[11],25800 nM
same,TGI,[12],26700 nM
same,TGI,[13],40200 nM
same,TGI,[14],18200 nM
same,TGI,[15],1170 nM
same,TGI,[16],10300 nM
same,TGI,[59],9970 nM
same,TGI,[17],5190 nM
same,TGI,[18],34200 nM
same,TGI,[19],4390 nM
same,TGI,[20],9280 nM
same,TGI,[21],27600 nM
same,TGI,[22],10700 nM
same,TGI,[23],29600 nM
same,TGI,[24],26600 nM
same,TGI,[25],48900 nM
same,TGI,[27],22600 nM
same,TGI,[28],26900 nM
same,TGI,[29],> 100000 nM
same,TGI,[30],37400 nM
same,TGI,[31],39600 nM
same,TGI,[32],> 100000 nM
same,TGI,[33],65200 nM
same,TGI,[34],22800 nM
same,TGI,[35],9930 nM
same,TGI,[36],12300 nM
same,TGI,[37],39000 nM
same,TGI,[38],31300 nM
same,TGI,[39],16700 nM
same,TGI,[40],9860 nM
same,TGI,[41],24800 nM
same,TGI,[42],19800 nM
same,TGI,[43],19300 nM
same,TGI,[44],33500 nM
same,TGI,[45],5920 nM
same,TGI,[46],28000 nM
same,TGI,[47],26000 nM
same,TGI,[48],35400 nM
same,TGI,[49],18000 nM
same,TGI,[50],3440 nM
same,TGI,[51],12600 nM
same,TGI,[52],8860 nM
same,TGI,[53],10700 nM
same,TGI,[54],25200 nM
same,TGI,[55],3610 nM
same,TGI,[56],43200 nM
same,TGI,[57],9630 nM
